Reference: patent US8247230B2, “Plant stem cell line derived from cambium of herbaceous plant with storage root and method for isolating the same” (Unhwa Corporation, priority 2007, dated 2012)

Legend:
[1] = test system: carrot root cambium-containing explant; test: Cell line induction in carrot explant with varying kinds of auxins in induction medium; format: cell-based, Daucus carota L.; settings: for Cell line induction pattern (in words): auxin used in induction medium; for Reaction with respect to cambium: auxins at the same concentration in induction medium, after osmotic stress
Procedure: A carrot (Daucus carota L.) was prepared and surface-sterilized in the same manner as in Example 1-1. Then, the prepared sample was treated with osmotic stress in the same manner as in Example 1-2 and Example 1-3, and then a cambium-derived cell line was induced from the carrot.
Also, other plant hormone auxins, including IAA, IBA, picloram, 2,4-D, CPA and NAA, were used at the same concentration to examine the influence of the hormone used in induction medium.

[2] = test system: ginseng cambium-derived cell line; test: Proliferation of ginseng cambium-derived cell line in growth medium; format: cell-based; settings: growth medium containing IAA, not 2,4-D
Procedure: As shown in FIG. 3(a), after the explant was cultured in medium 2 of Example 1 to necrotize tissues other than the cambium, it was subcultured in medium 3. Medium 3 is an optimal medium for the proliferation of the cambium-derived cell line and is based on the basal salt composition shown in Table 6. When the cambium-derived homogeneous cell line having the ability to divide was cultured in medium 3, it continually divided and proliferated. After about 10-20 days of the culture, the cambium-derived cell line was isolated, and the isolated cell line was allowed to proliferate again in the same medium (medium 3).

[3] = test system: true wild ginseng adventitious root cambium-derived cell line; test: Proliferation of true wild ginseng adventitious root cambium-derived cell line in growth medium; format: cell-based; settings: hormone used instead of 2,4-D in medium 3
Text: As a result, the cambium-derived homogeneous cell line having the ability to divide continually divided and proliferated, and thus after about 10-20 days of the culture, the cambium-derived homogeneous cell line having the ability to divide could be isolated. The true wild ginseng cambium-derived homogeneous cell line thus isolated was allowed to proliferate again by culturing it in the same medium. […] Meanwhile, in the true wild ginseng adventitious root cambium-containing explant in Example 2-1, the cell line was allowed to proliferate in the same manner as in Example 2, except that IBA was used instead of 2,4-D in Table 7.

MMP-1 = test: Inhibition of MMP-1 expression caused by UV light (UVB) in NHF cells; format: cell-based, human; settings: 10 uM, 40 mJ UVB, 48 hours, No UV = 100, Control UV = 230
Procedure: When MMPs are increased due to exposure to UV light, the increased MMPs degrade skin collagen to form skin wrinkles. Thus, the following test was carried out in order to examine whether MMP-1 expression increased due to UV light is inhibited by an extract or culture medium of the true wild ginseng cambium-derived homogeneous cell line.
NHF (normal human fibroblast) cells used in the test were isolated from the fetal penis prepuce and cultured. The culture medium was prepared by adding 10% fetal bovine serum (FBS, Hyclone, Logan, Utah, USA), inactivated by heating at 56° C. for 30 minutes, 100 unit/ml of penicillin, 100 μg/ml of streptomycin and 300 μg/ml of glutamine to DMEM medium (Invitroge Gibco life tech. Vienna, Austriea). The cells were cultured in the medium in a 5% CO2 incubator at a temperature of 37° C. and a humidity of 95% and subcultured at 3-4-day intervals, immediately before the cells were fused with each other.
NHF(p6) cells were dispensed into a 12-well plate at a density of 75,000 cells/well and starved for 24 hours. Then, the cells were radiated with 40 mJ of UVB and treated with varying concentrations of each sample for 48 hours. Then, an experiment was carried out using a kit (Amersham, RPN 2610). As a positive control group, 10 μM retinoic acid was used. […]

[4] = test system: ginseng root cambium-containing explant; test: Cell induction in ginseng explant cultured in 2,4-D-containing medium; format: cell-based; settings: about 7-14 days after yellowing
Procedure: Meanwhile, in order to examine the influence of the hormone used in the induction medium, the explant was cultured in a 2,4-D-containing medium, which was not the cambium-derived cell line induction medium and has been used in the conventional culture of general ginsengs. […] In other words, it could be seen that, when 2,4-D was used, cell line was induced all other tissues, non-specifically to the cambium.
As shown in FIG. 3(b), when a general culture system containing 2,4-D was used in culture, cells were induced from various tissues (cortex, phloem, xylem, cambium, pith, etc.) present in the entire cross section, and the various cells were mixed with each other. Thus, the induced and proliferated cells had heterogeneity. […] Thus, the induced cells had homogeneity.

Structure (SMILES)	Cell line induction pattern (in words) [1]	Reaction with respect to cambium [1]	also measured
Nc1c(Cl)c(Cl)nc(C(=O)O)c1Cl [Picloram, picloram]	the cell line was induced throughout the whole explant rather than with respect to the cambium	−	
O=C(O)COc1ccc(Cl)cc1 [CPA]	the cell line was induced throughout the whole explant rather than with respect to the cambium	−	
O=C(O)Cc1c[nH]c2ccccc12 [IAA, indole-3-acetic acid]	the homogeneous cell line was induced with respect to the cambium		Proliferation in growth medium (in words) [2]: did not proliferate and showed a tendency to differentiate; Proliferation in growth medium (in words) [3]: did not differentiate and showed a tendency to differentiate
CC1=C(/C=C/C(C)=C/C=C/C(C)=C/C(=O)O)C(C)(C)CCC1 [Retinoic acid, retinoic acid]			MMP-1 expression, % of control (MMP-1): 85 % of control
O=C(O)CCCc1c[nH]c2ccccc12 [IBA, indole-3-butyric acid]	the homogeneous cell line was induced with respect to the cambium		Proliferation in growth medium (in words) [3]: did not differentiate and proliferated
O=C(O)Cc1cccc2ccccc12 [NAA]	the cell line was induced throughout the whole explant rather than with respect to the cambium	−	Root induction with the passage of time (in words) ([1]; after about 4 weeks): a root was induced and differentiated in the cambium
O=C(O)COc1ccc(Cl)cc1Cl [2,4-D, 2,4-dichlorophenoxyacetic acid]	the cell line was induced throughout the whole explant rather than with respect to the cambium	−	Cell induction pattern (in words) [4]: cells were induced throughout the whole cross section
